In PubChem BioAssay AID1259411 (Chemical Carcinogenesis Research Information System (CCRIS), 2018):
Active and inactive are the calls of the source. How the calls were made is not given here.

System: rodent carcinogenicity bioassays, tumor incidence
Assay: CCRIS carcinogenicity studies
Method in brief: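 NCI-built, expert-reviewed records of carcinogenicity and related test outcomes (mutagenicity, tumor promotion/inhibition) compiled from published and report sources, historical span 1985-2011, not updated.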

c1ccc2c(c1)ccc1cc3c4c(ccc3cc12)CCCC4
carcinogen call (Species: MOUSE, Strain/Sex: SWISS/FEMALE, Route: DERMAL, Dose: 0, 32 UG AS 0.2% SOLUTION IN ACETONE APPLIED TO INTERSCAPULAR REGION 2/WK FOR 50 WK (STUDY DURATION: 60 WK), Tumor Site: Type of Lesion: SKIN: CARCINOMA): active; positive

COC(C)(C)C
carcinogen call (Species: MOUSE, Strain/Sex: CD-1/FEMALE, Route: INHALATION, Dose: 0, 400, 3000, 8000 PPM IN AIR 6 HR/D 5 D/WK FOR 18 MO (STUDY DURATION: 18 MO), Dose: 0, 400, 3000, 8000 PPM IN AIR 6 HR/D 5 D/WK FOR 18 MO (STUDY DURATION: 18 MO), Tumor Site: Type of Lesion: LIVER: ADENOMA): active; positive
carcinogen call (Species: MOUSE, Strain/Sex: CD-1/MALE, Route: INHALATION, Dose: 0, 400, 3000, 8000 PPM IN AIR 6 HR/D 5 D/WK FOR 18 MO (STUDY DURATION: 18 MO), Dose: 0, 400, 3000, 8000 PPM IN AIR 6 HR/D 5 D/WK FOR 18 MO (STUDY DURATION: 18 MO)): inactive; negative
carcinogen call (Species: RAT, Strain/Sex: F344/FEMALE, Route: INHALATION, Dose: 0, 400, 3000, 8000 PPM IN AIR 6 HR/D 5 D/WK FOR 24 MO (STUDY DURATION: 24 MO), Dose: 0, 400, 3000, 8000 PPM IN AIR 6 HR/D 5 D/WK FOR 24 MO (STUDY DURATION: 24 MO)): inactive; negative
carcinogen call (Species: RAT, Strain/Sex: F344/MALE, Route: INHALATION, Dose: 0, 400, 3000, 8000 PPM IN AIR 6 HR/D 5 D/WK FOR 24 MO (STUDY DURATION: 24 MO), Dose: 0, 400, 3000, 8000 PPM IN AIR 6 HR/D 5 D/WK FOR 24 MO (STUDY DURATION: 24 MO), Tumor Site: Type of Lesion: KIDNEY(RENAL TUBULE): ADENOMA OR CARCINOMA): active; positive
carcinogen call (Species: RAT, Strain/Sex: SPRAGUE-DAWLEY/FEMALE, Route: GAVAGE, Dose: 0, 250, 1000 MG/KG BW IN 1 ML OLIVE OIL 1/D 4 D/WK FOR 104 WK (STUDY DURATION: 166 WK), Dose: 0, 250, 1000 MG/KG BW IN 1 ML OLIVE OIL 1/D 4 D/WK FOR 104 WK (STUDY DURATION: 166 WK), Tumor Site: Type of Lesion: HEMOLYMPHORETICULAR SYSTEM: LYMPHOMA OR LEUKEMIA): active; positive
carcinogen call (Species: RAT, Strain/Sex: SPRAGUE-DAWLEY/FEMALE, Route: GAVAGE, Dose: 0, 250, 1000 MG/KG BW IN OLIVE OIL 1/D 4D/WK FOR 104 WK (STUDY DURATION: LIFE SPAN), Dose: 0, 250, 1000 MG/KG BW IN OLIVE OIL 1/D 4D/WK FOR 104 WK (STUDY DURATION: LIFE SPAN), Tumor Site: Type of Lesion: MULTIPLE SITES: LYMPHOMA OR LEUKEMIA): active; positive
carcinogen call (Species: RAT, Strain/Sex: SPRAGUE-DAWLEY/MALE, Route: GAVAGE, Dose: 0, 250, 1000 MG/KG BW IN 1 ML OLIVE OIL 1/D 4 D/WK FOR 104 WK (STUDY DURATION: 166 WK), Dose: 0, 250, 1000 MG/KG BW IN 1 ML OLIVE OIL 1/D 4 D/WK FOR 104 WK (STUDY DURATION: 166 WK), Tumor Site: Type of Lesion: TESTES: LEYDIG CELL TUMOR): active; positive
carcinogen call (Species: RAT, Strain/Sex: SPRAGUE-DAWLEY/MALE, Route: GAVAGE, Dose: 0, 250, 1000 MG/KG BW IN OLIVE OIL 1/D 4D/WK FOR 104 WK (STUDY DURATION: LIFE SPAN), Dose: 0, 250, 1000 MG/KG BW IN OLIVE OIL 1/D 4D/WK FOR 104 WK (STUDY DURATION: LIFE SPAN), Tumor Site: Type of Lesion: TESTES: LEYDIG CELL TUMOR): active; positive

O=[N+]([O-])c1ccc(N=Nc2c(O)ccc3ccccc23)c(Cl)c1
carcinogen call (Species: MOUSE, Strain/Sex: ICR/FEMALE, Route: DERMAL, Dose: 0, 1 MG IN 0.1 ML DISTILLED WATER 2/WK FOR A MEAN TOTAL DOSE OF 117.1 MG (STUDY DURATION: 18 MO)): inactive; negative
carcinogen call (Species: MOUSE, Strain/Sex: ICR/MALE, Route: DERMAL, Dose: 0, 1 MG IN 0.1 ML DISTILLED WATER 2/WK FOR A MEAN TOTAL DOSE OF 117.1 MG (STUDY DURATION: 18 MO)): inactive; negative

CCCCN(N=O)C(N)=O
carcinogen call (Species: MOUSE (NEWBORN), Strain/Sex: CD-1/MALE,FEMALE, Route: SUBCUTANEOUS, Dose: 333 MG/KG IN 1% GEL SOLN WITHIN 24 HR OF BIRTH, Tumor Site: Type of Lesion: LUNG: ADENOMA, ADENOCARCINOMA, LIVER: ADENOMA): active; positive
carcinogen call (Species: RAT, Strain/Sex: F344/FEMALE, Route: GAVAGE, Dose: 0, 15 MG/ML (TOTAL DOSE 0; 1.7 MMOL) IN 2 ML ETHYL ACETATE AND CORN OIL (1:2) 2/WK FOR 40 WK (STUDY DURATION: LIFETIME), Dose: 0, 15 MG/ML (TOTAL DOSE 0; 1.7 MMOL) IN 2 ML ETHYL ACETATE AND CORN OIL (1:2) 2/WK FOR 40 WK (STUDY DURATION: LIFETIME), Tumor Site: Type of Lesion: FORESTOMACH: SQUAMOUS CELL CARCINOMA, LUNG: TUMOR, MAMMARY GLAND: TUMOR, UTERUS: TUMOR, Tumor Site: Type of Lesion: FORESTOMACH: SQUAMOUS CELL CARCINOMA, LUNG: TUMOR, MAMMARY GLAND: TUMOR, UTERUS: TUMOR): active; positive
carcinogen call (Species: RAT, Strain/Sex: F344/FEMALE, Route: GAVAGE, Dose: 0, 15 MG/ML IN 0.2 ML ETHYL ACETATE AND CORN OIL 2/WK FOR 40 WK (STUDY DURATION: LIFESPAN), Tumor Site: Type of Lesion: FORESTOMACH: TUMOR, LUNG: TUMOR, MAMMARY GLAND: TUMOR, UTERUS: TUMOR, Tumor Site: Type of Lesion: FORESTOMACH: TUMOR, LUNG: TUMOR, MAMMARY GLAND: TUMOR, UTERUS: TUMOR): active; positive
carcinogen call (Species: RAT, Strain/Sex: F344/MALE, Route: GAVAGE, Dose: 0, 15 MG/ML (TOTAL DOSE 0; 1.7 MMOL) IN 2 ML ETHYL ACETATE AND CORN OIL (1:2) 2/WK FOR 40 WK (STUDY DURATION: LIFETIME), Dose: 0, 15 MG/ML (TOTAL DOSE 0; 1.7 MMOL) IN 2 ML ETHYL ACETATE AND CORN OIL (1:2) 2/WK FOR 40 WK (STUDY DURATION: LIFETIME), Tumor Site: Type of Lesion: FORESTOMACH: SQUAMOUS CELL CARCINOMA, LUNG: TUMOR): active; positive
carcinogen call (Species: RAT, Strain/Sex: F344/MALE, Route: GAVAGE, Dose: 0, 15 MG/ML IN 0.2 ML ETHYL ACETATE AND CORN OIL 2/WK FOR 40 WK (STUDY DURATION: LIFESPAN), Tumor Site: Type of Lesion: FORESTOMACH: TUMOR, LUNG: TUMOR): active; positive

O=C1O[C@H]([C@H](O)CO)C(O)=C1O
carcinogen call (Species: MOUSE, Strain/Sex: B6C3F1/FEMALE, Route: ORAL, Dose: 0, 2.5, 5% IN DRINKING WATER FOR 96 WK (STUDY DURATION: 110 WK), Dose: 0, 2.5, 5% IN DRINKING WATER FOR 96 WK (STUDY DURATION: 110 WK)): inactive; negative
carcinogen call (Species: MOUSE, Strain/Sex: B6C3F1/MALE, Route: ORAL, Dose: 0, 1.25, 2.5% IN DRINKING WATER FOR 96 WK (STUDY DURATION: 110 WK), Dose: 0, 1.25, 2.5% IN DRINKING WATER FOR 96 WK (STUDY DURATION: 110 WK)): inactive; negative
carcinogen call (Species: RAT, Strain/Sex: F344/FEMALE, Route: ORAL, Dose: 0, 1.25%, 2.5% IN TAP DRINKING WATER FOR 104 WK (STUDY DURATION: LIFESPAN), Dose: 0, 1.25%, 2.5% IN TAP DRINKING WATER FOR 104 WK (STUDY DURATION: LIFESPAN)): inactive; negative
carcinogen call (Species: RAT, Strain/Sex: F344/MALE, Route: ORAL, Dose: 0, 1.25%, 2.5% IN TAP DRINKING WATER FOR 104 WK (STUDY DURATION: LIFESPAN), Dose: 0, 1.25%, 2.5% IN TAP DRINKING WATER FOR 104 WK (STUDY DURATION: LIFESPAN)): inactive; negative

Nc1ccc(N=Nc2ccccc2)c(N)c1
carcinogen call (Species: MOUSE, Route: ORAL, Tumor Site: Type of Lesion: HEMATOPOIETIC SYSTEM (LEUKEMIA), LYMPHATIC SYSTEM: LYMPHOMA, LIVER, Tumor Site: Type of Lesion: HEMATOPOIETIC SYSTEM (LEUKEMIA), LYMPHATIC SYSTEM: LYMPHOMA, LIVER): active; positive

COc1cccc2c1C(=O)c1c(O)c3c(c(O)c1C2=O)C[C@@](O)(C(=O)CO)C[C@@H]3O[C@H]1C[C@H](N)[C@H](O)[C@H](C)O1
carcinogen call (Species: RAT, Strain/Sex: SPRAGUE-DAWLEY/FEMALE, Route: INTRAVENOUS, Dose: 0, 5, 10 MG/KG IN SALINE SOLUTION ONCE (STUDY DURATION: 1 YR), Dose: 0, 5, 10 MG/KG IN SALINE SOLUTION ONCE (STUDY DURATION: 1 YR), Tumor Site: Type of Lesion: MAMMARY GLAND: FIBROADENOMA, ADENOCARCINOMA): active; positive
carcinogen call (Species: RAT, Strain/Sex: SPRAGUE-DAWLEY/MALE, Route: INTRAVENOUS, Dose: 0, 5, 10 MG/KG IN SALINE SOLUTION ONCE (STUDY DURATION: 1 YR), Dose: 0, 5, 10 MG/KG IN SALINE SOLUTION ONCE (STUDY DURATION: 1 YR), Tumor Site: Type of Lesion: MAMMARY GLAND: ADENOCARCINOMA): active; positive
